Among the data in patent US6747041B1, “Heterocyclic dicarboxylic acid diamide derivatives, agricultural/horticultural insecticides and method of using the same” (Nihon Nohyaku Co., Ltd., priority 1999, dated 2004) are melting point values, retold here.

`Cc1cc(C(F)(C(F)(F)F)C(F)(F)F)ccc1NC(=O)c1nn(-c2ccccc2)c(Br)c1C(=O)NC(C)C` came in with a melting point of 164 to 166 °C.

Take `Cc1cc(C(F)(C(F)(F)F)C(F)(F)F)ccc1NC(=O)c1ccc[n+]([O-])c1C(=O)NC(C)C`: the melting point lay within 108 to 110 °C.

In general, melting point refers to the temperature of the solid-liquid transition.
